Laboratory results published in PubChem BioAssay (NCI).
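Tested at 5 concentrations; 48 h exposure; 96-well plates; endpoints linearly interpolated, else capped at highest concentration. TGI is the concentration that stops growth completely.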

Experiments:
Test in all cases: growth of human tumour cells (NCI), 48 h
UACC-62 melanoma = tested on: UACC-62 melanoma
HOP-92 NSCLC = tested on: HOP-92 NSCLC
CAKI-1 renal = tested on: CAKI-1 renal
MALME-3M melanoma = tested on: MALME-3M melanoma
UACC-257 melanoma = tested on: UACC-257 melanoma
NCI-H23 lung = tested on: NCI-H23 lung
HT29 colon = tested on: HT29 colon
SN12C renal = tested on: SN12C renal
MOLT-4 leukemia = tested on: MOLT-4 leukemia
NCI-H460 lung = tested on: NCI-H460 lung
OVCAR-4 ovarian = tested on: OVCAR-4 ovarian
M14 melanoma = tested on: M14 melanoma
SF-539 CNS = tested on: SF-539 CNS
T-47D breast = tested on: T-47D breast

SMILES	TGI (UACC-62 melanoma) [µM]	TGI (HOP-92 NSCLC) [µM]	TGI (CAKI-1 renal) [µM]	TGI (MALME-3M melanoma) [µM]	TGI (UACC-257 melanoma) [µM]	TGI (NCI-H23 lung) [µM]	TGI (HT29 colon) [µM]	TGI (SN12C renal) [µM]	TGI (MOLT-4 leukemia) [µM]	TGI (NCI-H460 lung) [µM]	TGI (OVCAR-4 ovarian) [µM]	TGI (M14 melanoma) [µM]	TGI (SF-539 CNS) [µM]	TGI (T-47D breast) [µM]
CC(=O)O/N=C/c1cc2c(cc1Br)OCO2	> 349	> 349	> 349	> 349	> 349	> 349	> 349	> 349	> 349	> 349				
CC#Cc1c(C#CC)c(OC)c2c(c1OC)C(=O)c1ccccc1C2=O	> 100		> 100	> 100	> 100	> 100	> 100	> 100	> 100	> 100	> 100	> 100		
COC(=O)[C@@H]1[C@H](O)CC[C@H]2[C@@]1(C)CC[C@@H](C)[C@]2(COC(C)=O)CC(=O)c1ccoc1	> 50	> 50	> 50		> 50	> 50	> 50	> 50	> 50	> 50	> 50	> 50	> 50	> 50
Cc1ccc(F)c2c(=O)cc(-c3ccccc3)[nH]c12	> 100	> 100	> 100	> 100	> 100	> 100	> 100	> 100	> 100	> 100	> 100	> 100	> 100	
CC1(C)N=C(Oc2ccccc2)n2nccc2N1	> 100	> 100	> 100	> 100	> 100	> 100	> 100	> 100	> 100	> 100	> 100	> 100	> 100	
Cc1ccc(-n2cc(-c3ccc(Cl)cc3)c3c2N=CN2NC(c4cccs4)=NC32)cc1 (stereo not drawn)	68.6	24	40.4	> 100	> 100	52.3	> 100	29		19.2	6.17	> 100	45.2	
Cc1ccc(Nc2cn(COCc3ccccc3)c(=O)[nH]c2=O)cc1	> 100	> 100	> 100		> 100	> 100	> 100	> 100	> 100	> 100	> 100	> 100		
Cc1cc(C#N)c(Nc2ccccc2[N+](=O)[O-])s1	> 100	> 100	> 100		> 100	> 100		67.7	> 100	> 100	> 100	> 100	> 100	> 100
O=C1c2ccccc2C(=O)c2c(O)c(NCCNCCO)cc(O)c21	23.8	24.6	14.2	26.5	19.6	16.7	11.5	14.9	10.4	12.3	15.7	16	14.4	
